Data taken from patent US10131652B2, “Pyrimidinyloxy benzene derivatives as herbicides” (E. I. DU PONT DE NEMOURS AND COMPANY, priority 2014, dated 2018).

Experiments:
Assay type in all cases: in vivo
[1] = test system: blackgrass (Alopecurus myosuroides); assay: Test B postemergence plant response
Procedure, shortened: (§1)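 Values are visual control ratings (0 to 100) recorded approximately 10 days after postemergence application to greenhouse-grown plants of 2 to 10 cm, one- to two-leaf stage, each judged against untreated controls.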

[2] = test system: galium (catchweed bedstraw, Galium aparine); assay: Test B postemergence plant response
Procedure, shortened: as §1

[3] = test system: pigweed (Amaranthus retroflexus); assay: Test B pre-/postemergence plant response
Procedure, shortened: (§2)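 Evaluation is visual, about 10 days after application, rating injury from 0 (none) to 100 (complete control) relative to untreated controls. Application was a preemergence soil spray on seeded pots or a postemergence spray on one- to two-leaf plants.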

[4] = test system: Italian ryegrass (Lolium multiflorum); assay: Test B pre-/postemergence plant response
Procedure, shortened: as §2

[5] = test system: ragweed (common ragweed, Ambrosia elatior); assay: Test B pre-/postemergence plant response
Procedure, shortened: as §2

[6] = test system: kochia (Kochia scoparia); assay: Test B pre-/postemergence plant response
Procedure, shortened: as §2

[7] = test system: wheat (Triticum aestivum); assay: Test B pre-/postemergence plant response
Procedure, shortened: as §2

[8] = test system: barnyardgrass (Echinochloa crus-galli); assay: Test B pre-/postemergence plant response
Procedure, shortened: as §2

[9] = test system: corn (Zea mays); assay: Test B pre-/postemergence plant response
Procedure, shortened: as §2

[10] = test system: giant foxtail (Setaria faberii); assay: Test B pre-/postemergence plant response
Procedure, shortened: as §2

[11] = test system: small-flower umbrella sedge (Cyperus difformis); assay: Test C flooded paddy test plant response; settings: Flood, 250 g ai/ha; scale of 0 to 100 where 0 is no effect and 100 is complete control; 13 to 15 days
Procedure, shortened: (§3)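 Readout is a visual 0–100 score (100 = complete control) versus controls at 13–15 days. Plants at 2-leaf stage, flooded to 3 cm, treated through paddy water.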

[12] = test system: ducksalad (Heteranthera limosa); assay: Test C flooded paddy test plant response; settings: Flood, 250 g ai/ha; scale of 0 to 100 where 0 is no effect and 100 is complete control; 13 to 15 days
Procedure, shortened: as §3

[13] = test system: rice (Oryza sativa); assay: Test C flooded paddy test plant response; settings: Flood, 250 g ai/ha; scale of 0 to 100 where 0 is no effect and 100 is complete control; 13 to 15 days
Procedure, shortened: as §3

[14] = test system: barnyardgrass (Echinochloa crus-galli); assay: Test C flooded paddy test plant response; settings: Flood, 250 g ai/ha; scale of 0 to 100 where 0 is no effect and 100 is complete control; 13 to 15 days
Procedure, shortened: as §3

[15] = 125 g ai/ha, postemergence, 0 to 100 scale, 0 no effect, 100 complete control
[16] = Postemergence, 31 g ai/ha, 0 to 100 scale (0 no effect, 100 complete control)
[17] = 31 g ai/ha, Preemergence, 0 to 100 scale where 0 is no effect and 100 is complete control
[18] = Preemergence, 125 g ai/ha, 0 to 100 scale (0 no effect, 100 complete control)
[19] = 31 g ai/ha, Postemergence, 0 to 100 scale, 0 no effect, 100 complete control

SMILES | Plant response rating, Blackgrass [1, 15] | Plant response rating, Galium [2, 15] | Plant response rating, Pigweed [3, 17] | Plant response rating, Pigweed [3, 15] | Pigweed plant response rating [3, 18] | Plant response rating, Ryegrass, Italian [4, 17] | Plant response rating, Ryegrass, Italian [4, 15] | Ryegrass, Italian plant response rating [4, 18] | Plant response rating, Ragweed [5, 17] | Plant response rating, Ragweed [5, 15] | Ragweed plant response rating [5, 18] | Plant response rating, Kochia [6, 17] | Plant response rating, Kochia [6, 15] | Kochia plant response rating [6, 18] | Plant response rating, Wheat [7, 15] | Plant response rating, Barnyardgrass [8, 17] | Plant response rating, Barnyardgrass [8, 15] | Barnyardgrass plant response rating [8, 18] | Plant response rating, Corn [9, 15] | Plant response rating, Foxtail, Giant [10, 17] | other results
Clc1cnc(Oc2ccccc2-c2ccns2)nc1 [Compound 233] | 10 | 0 | 0 | 20 | 0 | 0 | 0 | 0 | 0 | 0 | 0 | 0 | 0 | 0 | 0 | 0 | 10 | 0 | 10 | 0 | Plant response rating, Blackgrass [1, 16]: 0; Plant response rating, Galium [2, 16]: 0; Plant response rating, Pigweed [3, 16]: 0; Plant response rating, Ryegrass, Italian [4, 16]: 0; Plant response rating, Ragweed [5, 16]: 0; Plant response rating, Kochia [6, 16]: 0; Plant response rating, Wheat [7, 16]: 0; Plant response rating, Barnyardgrass [8, 16]: 0; Plant response rating, Corn [9, 16]: 0; Plant response rating, Foxtail, Giant [10, 15]: 0; Plant response rating, Foxtail, Giant [10, 16]: 0; Foxtail, Giant plant response rating [10, 18]: 0; Sedge, Umbrella plant response rating [11]: 0; Ducksalad plant response rating [12]: 0; Rice plant response rating [13]: 0; Barnyardgrass plant response rating [14]: 0
FC(c1cc(-c2ccccc2Oc2ncc(Cl)cn2)no1)C(F)(F)F (stereo not drawn) [Compound 133] | 70 | 100 | 90 | 100 | 100 | 0 | 30 | 50 | 0 | 30 | 10 | 50 | 90 | 90 | 10 | 30 | 60 | 70 | 30 | 70 | Plant response rating, Blackgrass [1, 19]: 30; Plant response rating, Barnyardgrass [8, 19]: 20; Plant response rating, Corn [9, 19]: 10; Plant response rating, Foxtail, Giant [10, 19]: 20; Plant response rating, Foxtail, Giant [10, 15]: 50; Foxtail, Giant plant response rating [10, 18]: 90; Sedge, Umbrella plant response rating [11]: 80; Ducksalad plant response rating [12]: 80; Rice plant response rating [13]: 40; Barnyardgrass plant response rating [14]: 40
FC(F)(F)COc1cc(-c2ccccc2Oc2ncc(Cl)cn2)ncn1 [Compound 227] | 70 | 80 | 40 | 90 | 80 | 0 | 30 | 10 | 0 | 30 | 0 | 0 | 80 | 50 | 20 | 10 | 60 | 50 | 20 | 40 | Plant response rating, Blackgrass [1, 16]: 10; Plant response rating, Galium [2, 16]: 70; Plant response rating, Pigweed [3, 16]: 60; Plant response rating, Ryegrass, Italian [4, 16]: 0; Plant response rating, Ragweed [5, 16]: 10; Plant response rating, Kochia [6, 16]: 40; Plant response rating, Wheat [7, 16]: 0; Plant response rating, Barnyardgrass [8, 16]: 10; Plant response rating, Corn [9, 16]: 10; Plant response rating, Foxtail, Giant [10, 15]: 60; Plant response rating, Foxtail, Giant [10, 16]: 10; Foxtail, Giant plant response rating [10, 18]: 90; Sedge, Umbrella plant response rating [11]: 85; Ducksalad plant response rating [12]: 98; Rice plant response rating [13]: 0; Barnyardgrass plant response rating [14]: 0
Cn1nc(-c2c(C#N)cccc2Oc2ncc(Cl)cn2)cc1C(F)(F)F [Compound 146] | 30 | 50 | 0 | 60 | 70 | 0 | 0 | 0 | 0 | 0 | 0 | 0 | 60 | 0 | 0 | 0 | 20 | 30 | 0 | 0 | Plant response rating, Blackgrass [1, 16]: 0; Plant response rating, Galium [2, 16]: 30; Plant response rating, Pigweed [3, 16]: 30; Plant response rating, Ryegrass, Italian [4, 16]: 0; Plant response rating, Ragweed [5, 16]: 0; Plant response rating, Kochia [6, 16]: 50; Plant response rating, Wheat [7, 16]: 0; Plant response rating, Barnyardgrass [8, 16]: 0; Plant response rating, Corn [9, 16]: 0; Plant response rating, Foxtail, Giant [10, 15]: 20; Plant response rating, Foxtail, Giant [10, 16]: 0; Foxtail, Giant plant response rating [10, 18]: 20; Sedge, Umbrella plant response rating [11]: 0; Ducksalad plant response rating [12]: 0; Rice plant response rating [13]: 0; Barnyardgrass plant response rating [14]: 0
